# In patent publication US20200206200A1, “PROPHYLACTIC AND/OR THERAPEUTIC AGENT CONTAINING PYRIDYLAMINOACETIC ACID COMPOUND” (priority 2015, published 2020):
# Entries after “also recorded” stand apart in the source; their conditions may differ.
# Tested on: ocular hypertensive monkeys
# Assay: Intraocular pressure-lowering effect in laser-induced ocular hypertensive monkeys
# Assay type: in vivo, Macaca fascicularis
# Settings: 0.01 w/v% solution
# Procedure: To investigate the usefulness of the present compound A, an intraocular pressure-lowering effect of the present compound A was tested in experimental animals (ocular hypertensive monkeys). Regarding test solutions, a reference solution not containing the present compound A was used as a control, a solution containing the present compound A was prepared as Example 1 of the invention of the present application, and a latanoprost eye drop was prepared as Comparative Example 1, as shown below.
# To 1.7 g of polyoxyl 35 castor oil, 10 mL of a 0.5% (w/v) disodium edetate/10% (w/v) glycerin solution, 1 mL of a 1% (w/v) benzalkonium chloride solution, 30 mL of purified water, and 50 mL of a 2% (w/v) boric acid/0.2% (w/v) sorbic acid solution were added and dissolved therein. […]
# (2) The intraocular pressure was measured immediately before instillation of one of the test solutions (the above-described control, Example 1, and Comparative Example 1), and employed as the initial intraocular pressure. […]
# (4) After 2 hours, 4 hours, and 6 hours had passed from the instillation of the test solution, one drop of the 0.4% oxybuprocaine hydrochloride eye drop was instilled for local anesthesia to the eye whose intraocular pressure was to be measured, and then the intraocular pressure was measured. In addition, the intraocular pressure was measured three times, and the average value was shown in the results. […]
smiles,measurement,value
"CC(C)OC(=O)CNc1cccc(CN(Cc2ccc(-n3cccn3)cc2)S(=O)(=O)c2cccnc2)n1 [present compound A, isopropyl (6-{ [4-(pyrazol-1-yl)benzyl] (pyridin-3-ylsulfonyl)aminomethyl}pyridin-2-ylamino)acetate]",intraocular pressure-lowering activity (in words),larger than that in the latanoprost-treated group; also recorded: rapidly provided an excellent intraocular pressure-lowering effect
same,time after administration by which excellent intraocular pressure-lowering activity was exhibited,≤ 2 h
